Reference: patent publication US11311524B2, “Pharmaceutical composition used for treatment of HTLV-1-associated myelopathy” (DAIICHI SANKYO COMPANY, LIMITED, priority 2017, dated 2022)

Experiments:
[1] = test system: HAM patient-derived PBMC; test: Autoproliferation (3H-thymidine incorporation) of HAM patient-derived PBMC without stimulation; type: cell-based, human; settings: for GI50: Homo sapiens, PBMC of 8 HAM patients, 6 days culture, 3H-thymidine, read-out: GI50, autoproliferation activity of HAM patient-derived PBMC; for Suppression of autoproliferation activity of HAM patient-derived PBMC: no stimulation, relative to DMSO group
Protocol: PBMC taken from 8 HAM patients were suspended in culture mediums (RPMI1640 culture medium (wako) containing 10% FBS (GIBCO)), seeded in a 96-well round-bottom plate in a ratio of 1×10^5 cells per well (3 wells were used for each concentration), and compound A or compound B was added so as to provide a final concentration of 1, 10, 100 or 1000 nM. Culture was carried out at 37° C. in 5% CO2 conditions for 6 days. The DMSO treatment group and the PSL (1 μg/mL) treatment group were used as controls. Day 6 after initiation of culture, 1 μCi ^3H-thymidine was added to each well and culture was carried out at 37° C., in 5% CO2 conditions for 16 hours. Thereafter, the cultured cells were allowed to adsorb to a glass filter (Printed Filtermat A, PerkinElmer) by a cell harvester (Tomtec MH3, PerkinElmer), dried and impregnated with solid scintillator Meltilex-A (PerkinElmer). The amount of the ^3H-thymidine incorporated in the cells was measured by use of MicroBeta (WALLAC MicroBeta TriLux 1450-021) (Yamano et al., PLoS One. 2009, 4(8): e6517). Based on the average count of ^3H-thymidine in the DMSO treatment group of HAM patients' PBMC as 100%, the relative values of the groups treated with compound A, compound B and PSL (1 μg/mL) were obtained by calculation, and then, an average value of 8 HAM patient cases was obtained. A significance test was carried out in accordance with the Friedman test of GraphPad Prism6 (MDF).
The number of patients was increased to 16 and the same experiment as above was carried out.
Effect on HAM patient-derived PBMC was checked in the same manner as in the above Example except that an EZH2 inhibitor was used in place of compounds A and B.
As the EZH2 inhibitor, GSK126 (CAS No.: 1346574-57-9) and E7438 (CAS No.: 1403254-99-8) were used. The concentration for treatment was 1, 10, 100, 1000 or 10000 nM in terms of final concentration. In the experiment, PBMC samples taken from the 8 persons before the number of cases increased in the above were used.

[2] = test system: HTLV-1 infected cells in HAM patient's PBMC; test: HTLV-1 pro-viral load (infected cell rate) in HAM patient-derived PBMC by real time PCR; type: cell-based, human; settings: PSL 1 μg/ml control, this experimental system or clinical sites
Protocol: PBMC taken from 8 HAM patients were suspended in a culture medium (RPMI1640 culture medium containing 10% FBS) and seeded in a 48-well plate in a ratio of 5×10^5 cells per well, and compound A or compound B was added so as to provide a final concentration of 1, 10, 100 or 1000 nM. The culture solution of 0.5 mL in total was cultured at 37° C. in 5% CO2 conditions for 12 days. A group treated with DMSO and a group treated with PSL (1 μg/mL) were used as controls. Day 12 after initiation of culture, the culture solution was centrifuged, and thereafter, the cell suspension was recovered from each of the cultures carried out under different conditions and centrifuged. After the supernatant was removed, the cell pellet was subjected to genomic DNA extraction. The genome DNA extracted was subjected to real time PCR to measure HTLV-1 pro-viral load (infected cell rate) (Yamano et al., Blood. 2002, 99 (1): 88-94). Based on the HTLV-1 pro-viral load in cells, which were obtained by adding DMSO to each of the HAM patient's PBMC and culturing the PBMC, as 100%, the relative value of HTLV-1 pro-viral load in a group treated with compound A, compound B or PSL was calculated, and then, an average value of 8 HAM patient cases was obtained. The significance test was carried out by using the Friedman test of GraphPad Prism6 (MDF).

SMILES | GI50 [1] | Suppression of autoproliferation activity of HAM patient-derived PBMC [1] | Infected cell removal activity [2]
CCN(c1cc(-c2ccc(CN3CCOCC3)cc2)cc(C(=O)NCc2c(C)cc(C)[nH]c2=O)c1C)C1CCOCC1 [E7438, N-((4,6-Dimethyl-2-oxo-1,2-dihydropyridin-3-yl)methyl)-5-(ethyl(tetrahydro-2H-piran-4-yl)amino)-4-methyl-4′-(morpholinomethyl)-[1,1′-biphenyl]-3-carboxamide, reference compound] | 214 nM | suppress autoproliferation activity | 
CC[C@H](C)n1cc(C)c2c(C(=O)NCc3c(C)cc(C)[nH]c3=O)cc(-c3ccc(N4CCNCC4)nc3)cc21 [GSK126, N-[(1,2-Dihydro-4,6-dimethyl-2-oxo-3-pyridinyl)methyl]-3-methyl-1-[(1S)-1-methylpropyl]-6-[6-(1-piperazinyl)-3-pyridinyl]-1H-indole-4-carboxamide, reference compound] | 724 nM | suppress autoproliferation activity | 
C[C@]12C=CC(=O)C=C1CC[C@@H]1[C@@H]2[C@@H](O)C[C@@]2(C)[C@H]1CC[C@]2(O)C(=O)CO [PSL, prednisolone, reference compound] |  | can suppress autoproliferation activity | does not exhibit infected cell removal activity
